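Method: 48-hour compound exposure of cells in 96-well plates, five concentrations, linear interpolation of endpoints. The concentration for 50% growth inhibition is given as GI50. TGI marks complete inhibition of growth.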

In PubChem BioAssay (NCI) one finds GI50 and TGI data, which are given here for nine compounds.

Among the test systems are DU-145 prostate; A549 NSCLC; RPMI-8226 leukemia; NCI/ADR-RES ovarian; T-47D breast; LOX IMVI melanoma; HS 578T breast; UACC-257 melanoma; RXF 393 renal; EKVX NSCLC.
Common to all, as to assay: DTP human tumour cell line panel, 48 h

For the compound `Clc1cc(Cl)cc(Nc2ccc3cc(OCCCN4CCOCC4)ccc3n2)c1`, the GI50 (as a rule, the concentration giving 50% growth inhibition) is 3.05 µM in the experiment on DU-145 prostate; 3.93 µM in the experiment on A549 NSCLC; 2.2 µM with RPMI-8226 leukemia; 2.96 µM with NCI/ADR-RES ovarian; 3.01 µM in the experiment on T-47D breast; 1.62 µM with LOX IMVI melanoma. Further, the GI50 in the experiment on HS 578T breast was 1.99 µM; with UACC-257 melanoma, 1.96 µM; with RXF 393 renal it was 1.51 µM; in the experiment on EKVX NSCLC, 3.39 µM. In addition, the TGI (usually the concentration at which net growth stops) is > 100 µM with DU-145 prostate; > 100 µM in the experiment with A549 NSCLC; 7.08 µM in the experiment on RPMI-8226 leukemia; > 100 µM with NCI/ADR-RES ovarian; 14.1 µM with T-47D breast; 3.05 µM with LOX IMVI melanoma. In addition, the concentration for total growth inhibition (TGI) with HS 578T breast is 5.43 µM; in the experiment on UACC-257 melanoma, 4.34 µM; in the experiment on RXF 393 renal, 3.6 µM; in the experiment on EKVX NSCLC, > 100 µM.

Regarding `O=C(OCc1ccc2c(Cl)cc(Cl)c(O)c2n1)N1CCN(C(=O)c2cc3cc(F)ccc3[nH]2)CC1`, the GI50 in the experiment on DU-145 prostate is 1.94 µM; with A549 NSCLC it was 7.03 µM; with RPMI-8226 leukemia, 0.48 µM; in the experiment with NCI/ADR-RES ovarian, 0.331 µM; in the experiment on T-47D breast, > 100 µM; in the experiment with LOX IMVI melanoma, 0.453 µM. In addition, the GI50 in the experiment with HS 578T breast is 1.13 µM; in the experiment with UACC-257 melanoma, > 100 µM; with RXF 393 renal, 3.03 µM; in the experiment with EKVX NSCLC, > 74.9 µM. Moreover, the total growth inhibition concentration (TGI) in the experiment on DU-145 prostate was 18.6 µM; with A549 NSCLC, > 100 µM; with RPMI-8226 leukemia, > 100 µM; in the experiment with T-47D breast, > 100 µM; with LOX IMVI melanoma, > 100 µM; in the experiment on HS 578T breast, > 100 µM. Moreover, the TGI in the experiment with UACC-257 melanoma, with RXF 393 renal and with EKVX NSCLC was > 100 µM throughout.

As to `NC(=S)N/N=C/c1cc(-c2cccc(N)c2)ccn1`, the GI50 in the experiment with DU-145 prostate was 1.25 µM; in the experiment on A549 NSCLC, 3.11 µM; in the experiment with RPMI-8226 leukemia, 0.446 µM; in the experiment on NCI/ADR-RES ovarian, 2.68 µM; in the experiment on T-47D breast, 1.34 µM; in the experiment with LOX IMVI melanoma, 2.09 µM. Further, the GI50 in the experiment with HS 578T breast is 0.585 µM; in the experiment on UACC-257 melanoma, 2.15 µM; in the experiment with RXF 393 renal, 2.32 µM; in the experiment on EKVX NSCLC, 2.6 µM. Further, the concentration for total growth inhibition (TGI) is 12 µM in the experiment with DU-145 prostate; > 51.3 µM in the experiment on A549 NSCLC; 28.7 µM in the experiment on RPMI-8226 leukemia; > 100 µM in the experiment on NCI/ADR-RES ovarian; > 100 µM with T-47D breast; 34.6 µM with LOX IMVI melanoma. In addition, the total growth inhibition concentration (TGI) in the experiment on HS 578T breast was > 57.4 µM; in the experiment on UACC-257 melanoma, > 28.6 µM; with RXF 393 renal it was 42.4 µM; in the experiment with EKVX NSCLC it was > 100 µM.

As for `Cn1c(=O)c2c(ncn2CC(=O)Nc2ccc(-c3ccccc3)nn2)n(C)c1=O`, the GI50 was > 100 µM with DU-145 prostate; > 100 µM with A549 NSCLC; > 100 µM in the experiment with RPMI-8226 leukemia; > 100 µM in the experiment with NCI/ADR-RES ovarian; 75.6 µM in the experiment on T-47D breast; > 100 µM with LOX IMVI melanoma. In addition, the GI50 in the experiment with HS 578T breast was > 100 µM; in the experiment on UACC-257 melanoma it was > 100 µM; in the experiment on RXF 393 renal it was 48.3 µM; with EKVX NSCLC it was > 100 µM. The concentration for total growth inhibition (TGI) in the experiment with DU-145 prostate, with A549 NSCLC, with RPMI-8226 leukemia, in the experiment with NCI/ADR-RES ovarian, with T-47D breast and with LOX IMVI melanoma was > 100 µM each time. In addition, the TGI with HS 578T breast, with UACC-257 melanoma, in the experiment with RXF 393 renal and with EKVX NSCLC was > 100 µM throughout.

In the case of `O=C(O)C12CC3(C(=O)O)CC(C(=O)O)(CC(C(=O)O)(C1)C3=O)C2=O`, the TGI in the experiment on DU-145 prostate, in the experiment with A549 NSCLC, in the experiment on RPMI-8226 leukemia, in the experiment with NCI/ADR-RES ovarian, in the experiment on T-47D breast and with LOX IMVI melanoma was > 100 µM throughout. The total growth inhibition concentration (TGI) in the experiment on HS 578T breast, in the experiment on UACC-257 melanoma, in the experiment on RXF 393 renal and in the experiment on EKVX NSCLC was > 100 µM throughout.

Turning to `Nc1ccc2[nH]cc(CCC(=O)O)c2c1`, the TGI with DU-145 prostate, with A549 NSCLC, with RPMI-8226 leukemia, in the experiment with NCI/ADR-RES ovarian, with T-47D breast and with LOX IMVI melanoma was > 100 µM in each case. In addition, the TGI with HS 578T breast, with UACC-257 melanoma, in the experiment with RXF 393 renal and with EKVX NSCLC was > 100 µM each time.

As to `Nc1nc(N)nc(CCCc2nc(N)nc(N)n2)n1`, the concentration for total growth inhibition (TGI) with DU-145 prostate, in the experiment on A549 NSCLC, in the experiment with RPMI-8226 leukemia, in the experiment on NCI/ADR-RES ovarian, in the experiment on T-47D breast and in the experiment on LOX IMVI melanoma was > 100 µM each time. The total growth inhibition concentration (TGI) in the experiment on HS 578T breast, in the experiment with UACC-257 melanoma, in the experiment with RXF 393 renal and with EKVX NSCLC was > 100 µM each time.

Turning to `Cc1ncc([N+](=O)[O-])n1CCNS(=O)(=O)CCCn1ncnc1[N+](=O)[O-]`, the TGI in the experiment with DU-145 prostate, in the experiment with A549 NSCLC, in the experiment on RPMI-8226 leukemia, with NCI/ADR-RES ovarian, in the experiment on T-47D breast and in the experiment with LOX IMVI melanoma was > 100 µM throughout. The TGI in the experiment on HS 578T breast, in the experiment on UACC-257 melanoma, in the experiment on RXF 393 renal and in the experiment on EKVX NSCLC was > 100 µM throughout.

For the compound `O=c1oc2ccc(Br)cc2c(=O)n1-c1ccc(F)cc1F`, the GI50 in the experiment on DU-145 prostate was 3.82 µM; in the experiment with A549 NSCLC, 3.17 µM; with RPMI-8226 leukemia, 1.66 µM; in the experiment with NCI/ADR-RES ovarian, 2.9 µM; with T-47D breast, 1.77 µM; in the experiment on LOX IMVI melanoma, 2.79 µM. The GI50 in the experiment with HS 578T breast was 2.11 µM; in the experiment with UACC-257 melanoma, 1.78 µM; with RXF 393 renal, 2.27 µM; with EKVX NSCLC, 2.03 µM. In addition, the TGI in the experiment with DU-145 prostate was 27.7 µM; in the experiment on A549 NSCLC, > 100 µM; with RPMI-8226 leukemia, 7.07 µM; with NCI/ADR-RES ovarian, 30.5 µM; with T-47D breast, 6.94 µM; in the experiment with LOX IMVI melanoma it was 12.4 µM. In addition, the TGI with HS 578T breast was found to be 8.01 µM; with UACC-257 melanoma, 6.67 µM; with RXF 393 renal, 6.34 µM; in the experiment with EKVX NSCLC, 9.32 µM.
